Test results: US7109333B2, “Heterocyclic compounds” (SmithKline Beecham Corporation, priority 1998, dated 2006)
Where a name gives a salt, the structure may show the parent alone.

How the values were obtained:
[1] = system: BT474 breast tumor cell line; assay: Methylene blue growth inhibition assay, BT474; assay type: cell-based; conditions: Homo sapiens, BT-474, 72 h; BT474, 3 days; read-out: Cell Proliferation BT474, IC50
Protocol: (§1) Human breast (BT474), head and neck (HN5) and gastric tumor (N87) cell lines were cultured in low glucose DMEM (Life Technologies 12320–032) containing 10% fetal bovine serum (FBS) at 37° C. in a humidified 10% CO2, 90% air incubator. The SV40 transformed human mammary epithelial cell line HB4a was transfected with either human H-ras cDNA (HB4a r4.2) or the human c-erbB2 cDNA (HB4a c5.2). The HB4a clones were cultured in RPMI containing 10% FBS, insulin (5 μg/ml), hydrocortisone (5 μg/ml), supplemented with the selection agent hygromycin B (50 μg/ml). Cells were harvested using trypsin/EDTA, counted using a haemocytometer, and plated in […] of the appropriate media, at the following densities, in a 96-well tissue culture plate (Falcon 3075): BT474 10,000 cells/well, HN5 3,000 cells/well, N87 10,000 cells/well, HB4a c5.2 3,000 cells/well, HB4a r4.2 3,000 cells/well. The next day, compounds were diluted in DMEM containing […] gentamicin, at twice the final required concentration, from 10 mM stock solutions in DMSO. […] of these dilutions were added to the […] of media currently on the cell plates. Medium containing 0.6% DMSO was added to control wells. Compounds diluted in DMEM were added to all cell lines, including the HB4a r4.2 and HB4a c5.2 cell lines. The final concentration of DMSO in all wells was 0.3%. Cells were incubated at 37° C., 10% CO2 for 3 days. Medium was removed by aspiration. Cell biomass was estimated by staining cells with 100 μl per well methylene blue (Sigma M9140, 0.5% in 50:50 ethanol:water), and incubation at room temperature for at least 30 minutes. Stain was removed, and the plates rinsed under a gentle stream of water, and air-dried. To release stain from the cells 100 μl of solubilization solution was added (1% N-lauroyl sarcosine, Sodium salt, Sigma L5125, in PBS), and plates were shaken gently for about 30 minutes. Optical density at 620 nm was measured on a microplate reader. Percent inhibition of cell growth was calculated relative to vehicle treated control wells. Concentration of compound that inhibits 50% of cell growth (IC50) was interpolated using nonlinear regression (Levenberg-Marquardt) and the equation, y=Vmax*(1−(x/(K+x)))+Y2, where “K” was equal to the IC50.

[2] = system: HN5 head and neck tumor cell line; assay: Methylene blue growth inhibition assay, HN5; assay type: cell-based; conditions: Homo sapiens, 72 h; HN5, 3 days; read-out: Cell Proliferation HN5, IC50
Protocol: as §1

[3] = molecular target: T1, EGFr isolated from solubilised A431 cell membranes (Homo sapiens, UniProt P00533); assay: Substrate phosphorylation assay, EGF-r, assay (a) (time-resolved fluorescence); assay type: biochemical
T1 construct: EGFr isolated from solubilised A431 cell membranes; endogenous in cells; host or cells: A431 cell membranes (solubilised)
T1 sequence (P00533 25-1210): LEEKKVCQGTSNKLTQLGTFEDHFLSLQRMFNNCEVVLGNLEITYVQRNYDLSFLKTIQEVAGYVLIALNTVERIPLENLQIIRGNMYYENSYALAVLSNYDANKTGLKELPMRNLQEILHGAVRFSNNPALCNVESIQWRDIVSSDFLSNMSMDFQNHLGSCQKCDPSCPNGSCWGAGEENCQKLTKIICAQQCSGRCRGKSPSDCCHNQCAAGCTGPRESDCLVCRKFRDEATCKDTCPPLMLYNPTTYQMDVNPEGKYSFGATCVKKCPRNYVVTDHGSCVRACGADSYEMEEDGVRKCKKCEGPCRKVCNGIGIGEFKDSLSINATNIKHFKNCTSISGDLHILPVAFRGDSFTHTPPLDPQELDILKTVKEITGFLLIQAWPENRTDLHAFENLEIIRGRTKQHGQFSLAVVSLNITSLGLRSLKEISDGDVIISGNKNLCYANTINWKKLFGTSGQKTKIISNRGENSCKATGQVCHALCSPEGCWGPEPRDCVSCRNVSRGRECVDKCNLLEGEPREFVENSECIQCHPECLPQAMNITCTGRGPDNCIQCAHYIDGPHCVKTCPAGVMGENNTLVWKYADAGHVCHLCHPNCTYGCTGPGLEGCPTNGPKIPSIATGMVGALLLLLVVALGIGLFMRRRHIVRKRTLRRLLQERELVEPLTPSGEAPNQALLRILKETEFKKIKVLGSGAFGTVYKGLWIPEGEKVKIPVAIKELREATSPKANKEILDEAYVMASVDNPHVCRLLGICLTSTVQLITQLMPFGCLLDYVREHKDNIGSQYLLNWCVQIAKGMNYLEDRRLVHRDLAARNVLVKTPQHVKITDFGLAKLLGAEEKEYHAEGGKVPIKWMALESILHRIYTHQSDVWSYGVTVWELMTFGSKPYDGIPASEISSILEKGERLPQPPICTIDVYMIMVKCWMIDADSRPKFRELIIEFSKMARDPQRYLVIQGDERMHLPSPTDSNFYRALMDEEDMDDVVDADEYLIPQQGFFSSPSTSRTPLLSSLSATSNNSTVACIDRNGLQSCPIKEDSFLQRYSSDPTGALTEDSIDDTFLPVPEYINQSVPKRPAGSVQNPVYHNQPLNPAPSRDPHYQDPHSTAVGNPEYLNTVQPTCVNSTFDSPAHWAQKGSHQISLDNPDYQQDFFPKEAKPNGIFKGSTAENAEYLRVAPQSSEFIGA
Text: (§2) The substrate phosphorylation assays use baculovirus expressed, recombinant constructs of the intracellular domains of c-erbB-2 and c-erbB-4 that are constitutively active and EGFr isolated from solubilised A431 cell membranes. The method measures the ability of the isolated enzymes to catalyse the transfer of the g-phosphate from ATP onto tyrosine residues in a biotinylated synthetic peptide (Biotin-[…]. Substrate phosphorylation was detected following either of the following two procedures: a.) c-ErbB-2, c-ErbB4 or EGFr were incubated for 30 minutes, at room temperature, with 10 mM MnCl2, 10 mM ATP, 5 mM peptide, and test compound (diluted from a 5 mM stock in DMSO, final DMSO concentration is 2%) in 40 mM HEPES buffer, pH 7.4. The reaction was stopped by the addition of EDTA (final concentration 0.15 mM) and a sample was transferred to a streptavidin-coated 96-well plate. The plate was washed and the level of phosphotyrosine on the peptide was determined using a Europium-labelled antiphosphotyrosine antibody and quantified with a time-resolved fluorescence technique. b.) ErbB2 was incubated for 50 minutes at room temperature with 15 mM MnCl2, 2 mM ATP, 0.25 mCi [γ-^33P] ATP/well, 5 mM peptide substrate, and test compound (diluted from a 10 mM stock in DMSO, final DMSO concentration is 2%) in 50 mM MOPS pH 7.2. The reaction was terminated by the addition of […] of PBS containing 2.5 mg/ml streptavidin-coated SPA beads (Amersham Inc.), 50 mM ATP, 10 mM EDTA and 0.1% TX-100. The microtitre plates were sealed and SPA beads were allowed to settle for at least six hours. The SPA signal was measured using a Packard Topcount 96-well plate scintillation counter (Packard Instrument Co., Meriden, Conn.).

[4] = system: HB4a r4.2 (HB4a transfected with human H-ras cDNA); assay: Methylene blue growth inhibition assay, HB4a ras; assay type: cell-based; conditions: 72 h, HB4a r4.2, 3 days, read-out: Cell Proliferation HB4a ras, IC50
Protocol: as §1

[5] = system: HB4a c5.2 (HB4a transfected with human c-erbB2 cDNA); assay: Methylene blue growth inhibition assay, HB4a erbB2; assay type: cell-based; conditions: 72 h, HB4a c5.2, 3 days, read-out: Cell Proliferation HB4a erbB2, IC50
Protocol: as §1

c-erbB-2 = molecular target: T2, c-erbB-2 (Homo sapiens, UniProt P04626); assay: Substrate phosphorylation assay, erbB2, assay (b) (SPA, 33P-ATP); assay type: biochemical; conditions: Tables 1A and 1B
T2 construct: baculovirus expressed, recombinant constructs of the intracellular domains of c-erbB-2 and c-erbB-4; made in house
T2 sequence (P04626 676-1255 limits assumed): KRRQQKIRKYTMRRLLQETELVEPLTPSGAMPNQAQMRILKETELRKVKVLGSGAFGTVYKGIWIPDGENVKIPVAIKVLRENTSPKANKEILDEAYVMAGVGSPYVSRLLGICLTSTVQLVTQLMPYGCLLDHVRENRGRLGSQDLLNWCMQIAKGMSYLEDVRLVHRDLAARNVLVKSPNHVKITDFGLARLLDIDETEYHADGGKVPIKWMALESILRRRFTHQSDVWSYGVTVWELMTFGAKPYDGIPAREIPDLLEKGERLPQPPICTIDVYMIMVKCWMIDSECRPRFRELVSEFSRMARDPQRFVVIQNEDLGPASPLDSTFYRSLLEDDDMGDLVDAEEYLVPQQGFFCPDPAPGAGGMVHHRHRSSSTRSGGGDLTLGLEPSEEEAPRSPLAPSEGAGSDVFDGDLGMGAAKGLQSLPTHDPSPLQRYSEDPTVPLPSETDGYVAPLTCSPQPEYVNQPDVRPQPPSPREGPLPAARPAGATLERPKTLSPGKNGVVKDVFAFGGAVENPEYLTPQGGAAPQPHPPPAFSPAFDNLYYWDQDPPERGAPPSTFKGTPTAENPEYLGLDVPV
Text: as §2

[6] = system: N87 gastric tumor cell line; assay: Methylene blue growth inhibition assay, N87; assay type: cell-based; conditions: Homo sapiens, 72 h; N87, 3 days; read-out: Cell Proliferation N87, IC50
Protocol: as §1

SMILES | IC50 [1] | IC50 [2] | IC50 [3] | IC50 [4] | IC50 [5] | IC50 (c-erbB-2) | IC50 [6]
CS(=O)(=O)CCNCc1ccc(-c2cc3c(Nc4ccc(OCc5ccc(F)cc5)cc4)ncnc3cn2)o1 [Example 1, (4-(4-Fluorobenzyloxy)-phenyl)-(6-(5-((2-methanesulphonyl-ethylamino)methyl)-furan-2-yl)-pyrido[3,4-d]pyrimidin-4-yl)-amine dihydrochloride] | < 5 µM | < 5 µM | < 100 nM | 25 to 50 µM | < 5 µM | < 100 nM | < 5 µM
CS(=O)(=O)CCNCc1ccc(-c2cc3c(Nc4ccc(OCc5cccc(F)c5)cc4)ncnc3cn2)o1 [Example 2, (4-(3-Fluorobenzyloxy)-phenyl)-(6-(5-((2-methanesulphonyl-ethylamino)methyl)-furan-2-yl)-pyrido[3,4-d]pyrimidin-4-yl)-amine dihydrochloride] | < 5 µM | < 5 µM | < 100 nM | 25 to 50 µM | < 5 µM | < 100 nM | < 5 µM
CS(=O)(=O)CCNCc1nc(-c2ccc3ncnc(Nc4ccc5c(cnn5Cc5cccc(F)c5)c4)c3c2)cs1 [Example 21, N-[1-(3-fluorobenzyl)-1H-indazol-5-yl]-6-[2-({[2-(methanesulphonyl)ethyl]amino}methyl)-1,3-thiazol-4-yl]-4-quinazolinamine] | < 5 µM | < 5 µM | – | 5 to 25 µM | < 5 µM | < 100 nM | < 5 µM
CS(=O)(=O)CCNCc1ccc(-c2ccc3ncnc(Nc4ccc(S(=O)(=O)c5ccccc5)cc4)c3c2)o1 [Example 22, 6-[5-({[2-(methanesulphonyl)ethyl]amino}methyl)-2-furyl]-N-[4-(benzenesulphonyl)phenyl]-4-quinazolinamine] | < 5 µM | < 5 µM | – | 25 to 50 µM | < 5 µM | < 100 nM | < 5 µM
CS(=O)(=O)CCNCc1nc(-c2ccc3ncnc(Nc4ccc(S(=O)(=O)c5ccccc5)cc4)c3c2)cs1 [Example 23, 6-[2-({[2-(methanesulphonyl)ethyl]amino}methyl)-1,3-thiazol-4-yl]-N-[4-(benzenesulphonyl)phenyl]-4-quinazolinamine] | < 5 µM | < 5 µM | – | 25 to 50 µM | < 5 µM | < 100 nM | < 5 µM
CS(=O)(=O)CCNCc1nc(-c2ccc3ncnc(Nc4ccc(OCc5cccc(C(F)(F)F)c5)cc4)c3c2)cs1 [Example 24, 6-[2-({[2-(methanesulphonyl)ethyl]amino}methyl)-1,3-thiazol-4-yl]-N-(4-{[3-(trifluoromethyl)benzyl]oxy}phenyl)-4-quinazolinamine] | 5 to 25 µM | < 5 µM | – | > 50 µM | 5 to 25 µM | < 100 nM | 5 to 25 µM
CS(=O)(=O)CCNCc1nc(-c2ccc3ncnc(Nc4ccc(OCc5cccc(F)c5)c(F)c4)c3c2)cs1 [Example 25, N-{3-fluoro-4-[(3-fluorobenzyl)oxy]phenyl}-6-[2-({[2-(methanesulphonyl)ethyl]amino}methyl)-1,3-thiazol-4-yl]-4-quinazolinamine] | < 5 µM | < 5 µM | – | > 50 µM | < 5 µM | < 100 nM | < 5 µM
CS(=O)(=O)CCNCc1nc(-c2ccc3ncnc(Nc4ccc5c(cnn5Cc5ccccc5)c4)c3c2)cs1 [Example 26, N-(1-benzyl-1H-indazol-5-yl)-6-[2-({[2-(methanesulphonyl)ethyl]amino}methyl)-1,3-thiazol-4-yl]-4-quinazolinamine] | < 5 µM | < 5 µM | – | 5 to 25 µM | < 5 µM | < 100 nM | < 5 µM
CS(=O)(=O)CCNCc1ccc(-c2ccc3ncnc(Nc4ccc(OCc5ccccc5)c(F)c4)c3c2)o1 [Example 27] | < 5 µM | < 5 µM | – | 5 to 25 µM | < 5 µM | < 100 nM | < 5 µM
CS(=O)(=O)CCNCc1ccc(-c2ccc3ncnc(Nc4ccc(OCc5ccccc5)c(Cl)c4)c3c2)o1 [Example 28] | < 5 µM | < 5 µM | – | 25 to 50 µM | < 5 µM | < 100 nM | < 5 µM
COc1cc2ncnc(Nc3ccc(S(=O)(=O)c4ccccc4)cc3)c2cc1-c1ccc(CNCCS(C)(=O)=O)o1 [Example 33, 6-[5-({[2-(Methanesulphonyl)ethyl]amino}methyl)-2-furyl]-7-methoxy-N-(4-benzenesulphonyl)phenyl-4-quinazolinamine] | < 5 µM | < 5 µM | – | < 5 µM | < 5 µM | < 100 nM | < 5 µM
CS(=O)(=O)CCNCc1ccc(-c2cc3c(Nc4ccc(OCc5ccccc5)cc4)ncnc3cc2F)o1 [Example 34, N-[4-(Benzyloxy)phenyl]-7-fluoro-6-[5-({[2-(methanesulphonyl)ethyl]amino}methyl)-2-furyl]-4-quinazolinamine] | < 5 µM | < 5 µM | – | > 50 µM | < 5 µM | < 100 nM | < 5 µM
CS(=O)(=O)CCNCc1ccc(-c2cc3c(Nc4ccc5c(cnn5Cc5ccccc5)c4)ncnc3cc2F)o1 [Example 35] | < 5 µM | < 5 µM | – | 25 to 50 µM | < 5 µM | < 100 nM | < 5 µM
CS(=O)(=O)CCNCc1ccc(-c2cc3c(Nc4ccc(S(=O)(=O)c5ccccc5)cc4)ncnc3cc2F)o1 [Example 36, N-[4-(Phenylsulphonyl)phenyl]-7-fluoro-6-[5-({[2-(methanesulphonyl)ethyl]amino]methyl)-2-furyl]-4-quinazolinamine] | 5 to 25 µM | 5 to 25 µM | – | > 50 µM | 5 to 25 µM | < 100 nM | 5 to 25 µM
CS(=O)(=O)CCNCc1ccc(-c2ccc3ncnc(Nc4ccc(OCc5ccccc5)c(C(F)(F)F)c4)c3c2)o1 [Example 37] | < 5 µM | < 5 µM | – | 25 to 50 µM | < 5 µM | < 100 nM | < 5 µM
